In data set [1] the test system is II-IIIA degree burns. Description: Burn model in rats, hexapeptide as topical 0.02-0.5% solution (Example 3). In kind it is in vivo, outbred male rats. To be noted: for Day on which burn wound hyperaemia score reached 0: after thermal injury; for Day on which burn wound hyperaemia score reached 0 / Burn wound oedema score: topical; for Burn wound oedema score: score 0-3. The method, then:
The efficacy of topical administration of tyrosyl-D-alanyl-glycyl-phenylalanyl-leucyl-arginine in the therapy of thermal burns was evaluated on models of II-IIIA degree burns in 30 outbred male rats. The animals were kept in a vivarium (ambient temperature 19-23° C.) according to Good Laboratory Practices of the Eurasian Economic Union and the applicable guidelines (Reference).
Flat-bottom glass containers of an appropriate diameter filled with liquid paraffin to ⅔ of their volume were used as the thermal agent. The containers were heated on a water bath before application to the skin of the rats, which were randomized to three groups (n=10 in each group): the control group and two experimental groups. Another tissue repair stimulator, dexpanthenol (5% topical ointment), was used as the comparator. All the rats received burns with a standardized area of ≈40 cm^2. Within 20 min. after inflicting the thermal injury, control group animals were treated by applying an aseptic dressing followed by therapy with Iodopiron and Levomecol (group I); animals in the experimental groups additionally received dexpanthenol (group II) or 0.02-0.5% solution of hexapeptide tyrosyl-D-alanyl-glycyl-phenylalanyl-leucyl-arginine (group III consisting of 5 animals that received 0.02% solution and 5 animals that received 0.5% solution).
The experiment involved evaluating the general condition of the animals and performing gross examination to evaluate the severity of tissue oedema in the burn region, hyperaemia, infiltration, appearance of wound discharge and wound epithelialization. These signs were scored as follows: maximum severity of a sign corresponded to a score of 3 points, and absence of a sign to a score of 0. Objective assessment of the healing process was based on planimetric measurements. All the observations were performed on days 1, 3, 5, 7 and 10 of the experiment.
The healing rate was determined using the formula V=(S1−S2)/t, where S1=wound area during the previous measurement, S2=wound area during the next measurement, t=number of days between the previous and the next measurement.
The experiment also included an evaluation of the white blood cell population as a ratio of the total number of lymphocytes to segmented cells in venous blood.

The subject of data set [2] is II-IIIA degree burns. Nature of the data set: Burn model in rats, hexapeptide as 0.02% and 0.5% gel (Example 5). Type of data set: in vivo, outbred male rats. To be noted: for Average healing rate of burn wounds, difference to control Group I: FIG. 4; for Burn area (planimetry), dynamics of burn wound healing: vs control and Bepanthen. The procedure:
The efficacy of topical administration of hexapeptide tyrosyl-D-alanyl-glycyl-phenylalanyl-leucyl-arginine in the therapy of thermal burns was evaluated on models of II-IIIA degree burns in 40 outbred male rats. The animals were kept in a vivarium according to Good Laboratory Practices of the Eurasian Economic Union and the applicable guidelines (Reference). Flat-bottom glass containers of an appropriate diameter filled with liquid paraffin to ⅔ of their volume were used as a thermal agent. The animals were randomized to four groups (n=10 in each group): Group I was the control group. A popular tissue repair product, Bepanthen (topical cream with 5% dexpanthenol), was used as the comparator. Burn area was standardized at Æ40 cm^2.
An aseptic dressing applied within the first 20 minutes after the burn, followed by therapy with Iodopiron and Levomecol, was used for control Group I. Group II was treated with Bepanthen. Group III received hexapeptide tyrosyl-D-alanyl-glycyl-phenylalanyl-leucyl-arginine as 0.02% topical gel, while Group IV received hexapeptide tyrosyl-D-alanyl-glycyl-phenylalanyl-leucyl-arginine as 0.5% topical gel.
In addition to monitoring the general condition of the animals on days 1, 3, 5, 7 and 10 of the experiment, the healing process was evaluated planimetrically. The healing rate was determined using the formula V=(S1-S2)/t, where S1=wound area during the previous measurement, S2=wound area during the next measurement, t=number of days between the previous and the next measurement.

The test system of a further data set is 3rd degree burn. As to conditions: 0.3 mg subcutaneously; cited from earlier work.
The next data set concerns linear wounds. Nature of the data set: Linear (planar) skin wound model in rats (Example 4). Type of data set: in vivo, white male Wistar rats. The method, then:
The study was performed in white male Wistar rats. All the animals were randomized to three groups of 13 rats each: (I) control Group (untreated), (II) comparator Group (Bepanthen topical cream with 5% dexpanthenol) and (III) experimental Group (hexapeptide tyrosyl-D-alanyl-glycyl-phenylalanyl-leucyl-arginine). The Group III consisted of 5 animals that received 0.02% solution and 5 animals that received 0.5% solution.
Linear wounds were modeled by an approximately 4-cm-long longitudinal incision in the skin and subcutaneous fat along the midline of the back. After making the incision, the edges of the wound were brought together, and three sutures were applied at an equal distance. The animals received the study drugs starting on the day of the operation; the control Group received a placebo. In each group, 3 rats were intended for a tensometric study, which required euthanasia on day 7 of the experiment. Samples for a histological evaluation were collected immediately after complete healing (on days 25-26).
The study drugs were applied once daily, every day, for 20 days. The wound healing effect was evaluated based on the clinical course (presence of purulent discharge, dynamics of wound edge attachment) on days 4, 7, 15 and 20 of the experiment.

The subject of the next data set is burn injury. To be noted: intraperitoneal; during 14 days after burn injury; Dalargin 0.5 mg/kg; control 60%; cited from earlier work.
For the next data set, the system named is neutrophils. To be noted: cited from earlier work.

Peptide text beside a SMILES is read from it.

Take `CC(C)(CO)[C@@H](O)C(=O)NCCCO` [Dexpanthenol, dexpanthenol]: in the data set with II-IIIA degree burns [1], the “Day on which burn wound hyperaemia score reached 0” value came out at 7 days. Further, the “Burn wound oedema score” value amounted to 2.0±0.5 points in the data set on II-IIIA degree burns [1] (day 1 after thermal injury), 0.7±0.5 points in the data set with II-IIIA degree burns [1] (day 5 after thermal injury) and 0.3±0.3 points in the data set with II-IIIA degree burns [1] (day 7 after thermal injury).
`CC(C)C[C@H](NC(=O)[C@H](Cc1ccccc1)NC(=O)CNC(=O)[C@@H](C)NC(=O)[C@@H](N)Cc1ccc(O)cc1)C(=O)N[C@@H](CCCNC(=N)N)C(=O)O` [tyrosyl-D-alanyl-glycyl-phenylalanyl-leucyl-arginine] (HELM PEPTIDE1{Y.[dA].G.F.L.R}$$$$V2.0): in the data set with II-IIIA degree burns [1], the “Day on which burn wound hyperaemia score reached 0” value amounted to 5 days. Also, the “Burn wound oedema score” value with II-IIIA degree burns [1] (day 1 after thermal injury) was found to be 1.0±0.4 points; in the data set with II-IIIA degree burns [1] (day 5 after thermal injury) it was 0.3±0.2 points; with II-IIIA degree burns [1] (day 7 after thermal injury), 0.0±0.0 points. Also, the “Reduction of hyperaemia compared with Dexpanthenol” value with II-IIIA degree burns [1] (topical 0.02-0.5% solution) is recorded as “statistically significantly more effective”. For the same molecule, the “Average healing rate of burn wounds, difference to control Group I” value with II-IIIA degree burns [1] (topical 0.02-0.5% solution, FIG. 1) is recorded as “Statistically significant differences”; in the data set with II-IIIA degree burns [2] (0.02% topical gel (Group III)), “Statistically significant differences”; in the data set on II-IIIA degree burns [2] (0.5% topical gel (Group IV)), “Statistically significant differences”. In addition, the “Burn area (planimetry), dynamics of burn wound healing” value is listed as “significant reduction of burn area already on day 3” with II-IIIA degree burns [1] (topical 0.02-0.5% solution, vs control and Dexpanthenol); “pronounced statistically significant positive dynamics of burn wound healing” in the data set with II-IIIA degree burns [2] (0.02% topical gel (Group III)); “pronounced statistically significant positive dynamics of burn wound healing” in the data set with II-IIIA degree burns [2] (0.5% topical gel (Group IV)). In addition, in the data set on II-IIIA degree burns [1] (venous blood, topical 0.02-0.5% solution, FIG. 2), the “Day on which lymphocyte-neutrophil ratio returned to normal” value was 7 days. Also, the “Reduction of burn area, 0.5% gel (Group IV) relative to 0.02% gel (Group III)” value in the data set with II-IIIA degree burns [2] (not statistically significant) was “numerically greater reduction of burn area”. Further, the “Skin repair and productive inflammation” value in the data set with 3rd degree burn is “significant acceleration of skin repair and reduced intensity of productive inflammation”. In addition, the “Tensiometric evaluation, superiority relative to control Group I” value with linear wounds (day 7 of the experiment) is listed as “over than twofold”. In addition, the “Healing of the linear wound (visual inspection)” value with linear wounds (once daily for 20 days, relative to control and comparator, FIG. 3) is “more rapid healing of the linear wound”. Moreover, the “Histological evaluation of the scar” value with linear wounds (samples collected after complete healing (days 25-26)) is on record as “fibrous components were dominant in scar tissue relative to cellular components”. For the same molecule, the Mortality rate with burn injury was 75%. In addition, in the data set with neutrophils (blood of healthy humans (n=27)), the “Effect on activated neutrophils and NADPHase activity” value was “increasing the total number of activated neutrophils and NADPHase activity”. Also, the “Effect on functional and metabolic activity of neutrophils” value in the data set with neutrophils (peripheral blood samples of burn patients (n=15)) is “normalized elevated functional and metabolic activity of neutrophils”.
Take delta sleep-inducing peptide [DSIP]: in the data set with burn injury, the Mortality rate is recorded as 20%.

The values above are taken from patent US20210161993A1, “Method for accelerated healing of burn wounds” (PVP LABS PTE. LTD., priority 2018, published 2021).
